The record followed here is US8778939B2, “Compounds” (Glaxo Group Limited, priority 2009, dated 2014).

For test [1], the target named is T1, 6His-Tev-LRRK2 (1326-2527) (Homo sapiens, UniProt Q5S007).
T1 construct: A LRRK2 cDNA encoding residues 1326-2527 was received from Dundee University; made in house; host or cells: Spodoptera frugiperda (Sf9) insect cells, baculovirus
T1 sequence (Q5S007 1326-2527): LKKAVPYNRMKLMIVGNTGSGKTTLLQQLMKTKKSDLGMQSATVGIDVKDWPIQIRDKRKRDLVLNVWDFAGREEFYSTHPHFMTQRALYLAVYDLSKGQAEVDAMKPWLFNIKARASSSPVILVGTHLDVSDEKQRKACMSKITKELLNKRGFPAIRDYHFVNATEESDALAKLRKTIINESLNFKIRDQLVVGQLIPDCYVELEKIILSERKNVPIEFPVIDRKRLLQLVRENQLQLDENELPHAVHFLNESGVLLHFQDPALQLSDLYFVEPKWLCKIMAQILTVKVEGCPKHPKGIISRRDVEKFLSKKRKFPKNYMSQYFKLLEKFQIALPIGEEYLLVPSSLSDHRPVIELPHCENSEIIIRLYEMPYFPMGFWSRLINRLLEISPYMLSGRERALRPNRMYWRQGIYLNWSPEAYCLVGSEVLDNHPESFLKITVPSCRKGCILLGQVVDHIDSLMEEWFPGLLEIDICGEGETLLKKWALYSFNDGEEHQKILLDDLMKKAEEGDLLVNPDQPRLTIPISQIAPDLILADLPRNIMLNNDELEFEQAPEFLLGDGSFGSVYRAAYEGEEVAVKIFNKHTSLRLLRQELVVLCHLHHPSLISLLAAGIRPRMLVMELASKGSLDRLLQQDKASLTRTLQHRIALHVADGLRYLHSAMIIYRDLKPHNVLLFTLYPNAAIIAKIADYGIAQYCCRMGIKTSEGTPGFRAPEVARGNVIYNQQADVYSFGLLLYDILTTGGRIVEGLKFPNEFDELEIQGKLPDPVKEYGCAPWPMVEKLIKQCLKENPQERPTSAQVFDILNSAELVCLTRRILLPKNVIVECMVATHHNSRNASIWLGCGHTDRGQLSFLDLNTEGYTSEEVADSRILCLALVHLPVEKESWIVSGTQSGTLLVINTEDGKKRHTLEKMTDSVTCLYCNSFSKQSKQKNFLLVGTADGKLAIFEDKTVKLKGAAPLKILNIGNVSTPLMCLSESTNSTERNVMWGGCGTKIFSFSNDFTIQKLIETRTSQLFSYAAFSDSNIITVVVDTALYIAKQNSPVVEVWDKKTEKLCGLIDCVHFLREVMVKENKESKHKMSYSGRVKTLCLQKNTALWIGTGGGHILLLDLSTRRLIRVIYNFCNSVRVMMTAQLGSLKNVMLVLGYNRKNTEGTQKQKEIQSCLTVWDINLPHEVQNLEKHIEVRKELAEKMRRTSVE
The experiment in a line: LRRK2 peptide substrate assay. Type of test: biochemical. The settings on record: Biotin-LRRKtide peptide substrate, ATP at Km. Here is the method:
Compounds of formula (I) may be tested for in vitro kinase activity in accordance with the following assays, using the non natural, in vitro, substrates moesin and the Longer Biotin-LRRKtide. Moesin and a shorter version of the peptide were identified as substrates in Jaleel et al, (2007, Biochem J, 405: 307-317).
LRRK2 Peptide Substrate Assay
(§1) a) 100 nl of a 1:4 serial dilution of test compound with a top final assay concentration of 30 μM is added to certain wells in a low volume 384 well black plate. 100 nl of DMSO is used in certain wells as controls.
b) 3 μl enzyme solution (80 nM purified recombinant 6His-Tev-LRRK2 (1326-2527) in assay buffer: 50 mM Hepes (pH 7.2), 10 mM MgCl2, 150 mM NaCl, 5% glycerol, 0.0025% triton X-100 and 1 mM DTT) is added to certain wells. […] Plates are then incubated for a further 1-2 hours at room temperature (incubation time varies depending upon rate and linearity of reaction with differing enzyme batches). d) 6 μl detection solution (50 nM Streptavidin SureLight® APC (PerkinElmer), 4 nM Eu-W1024 labelled anti-rabbit IgG antibody (PerkinElmer), 1:500 dilution (dilution determined on a batch to batch basis) of Phospho-Ezrin (Thr567)/Radixin (Thr564)/Moesin (Thr558) Polyclonal Antibody (New England Biolabs) and 60 mM EDTA in buffer: 40 mM Hepes (pH 7.2), 150 mM NaCl, 0.03% BSA) is added to each well. Plates are then incubated for a further 2 hours at room temperature before reading on a suitable plate reader (Excitation 330 nm, emission 620 nm (Eu) and 665 nm (APC)). Data is analysed using ActivityBase software (IDBS). LRRK2 AlphaScreen Protein Substrate Assay

The target in test [2] is T1, 6His-Tev-LRRK2 (1326-2527). The experiment in a line: LRRK2 AlphaScreen desensitised protein substrate assay. Type of test: biochemical. How it is done: as §1
b) 3 μl enzyme solution (80 nM purified recombinant 6His-Tev-LRRK2 (1326-2527) in assay buffer: 50 mM Hepes (pH 7.2), 10 mM MgCl2, 150 mM NaCl, 5% glycerol, 0.0025% triton X-100 and 1 mM DTT) is added to certain wells.
Plates are then incubated for a further 1-2 hours at room temperature (incubation time varies depending upon rate and linearity of reaction with differing enzyme batches).
d) 6 μl detection solution (1:250 dilution of AlphaLisa Protein A Acceptor beads (PerkinElmer), 1:64 dilution of AlphaLisa Gluthathione Donor beads (PerkinElmer) and 1:600 dilution (dilution determined on a batch to batch basis) of Phospho-Ezrin (Thr567)/Radixin (Thr564)/Moesin (Thr558) Polyclonal Antibody (New England Biolabs) in a buffer: 50 mM Hepes (pH 7.5), 250 mM NaCl, 60 mM EDTA, 1% PEG and 0.01% Brij 35) is added to each well. Plates are then incubated for a further 2 hours at room temperature in the dark before reading on an EnVision™ plate reader with AlphaScreen HTS turbo option module and AlphaScreen settings. Data is analysed using ActivityBase software (IDBS).
LRRK2 AlphaScreen Desensitised Protein Substrate Assay
This is conducted as described for the LRRK2 alphascreen protein substrate assay, with the following differences: • 1. The concentration of ATP in the substrate solution was 2 mM. • 2. The plates were incubated for 20 minutes at room temperature following addition of the substrate solution. Pharmacological Data
For orientation: Bead proximity is the source of the signal in Alpha formats.

[3] abbreviates: read-out: pIC50 in the LRRK2 peptide substrate assay (converted).
The mark [4] stands for this setting: excess of ATP present (2 mM ATP), read-out: pIC50 in the LRRK2 alphascreen desensitised protein substrate assay (converted).

In the case of `O=C(Nc1cccnc1)c1cc(C(=O)N2CCCC2)ccc1OCc1ccccc1` [Example 37, 2-[(Phenylmethyl)oxy]-N-3-pyridinyl-5-(1-pyrrolidinylcarbonyl)benzamide], the results for the IC50 in test [1] (setting [3]) and in test [2] (setting [4]) were ≤ 0.1 µM and ≤ 20 µM, respectively.
For `O=C(Nc1cccnc1)c1cc(C(=O)N2CCOCC2)ccc1OCc1ccccc1` [Example 38, 5-(4-Morpholinylcarbonyl)-2-[(phenylmethyl)oxy]-N-3-pyridinylbenzamide], the IC50 in test [1] (setting [3]) is ≤ 0.1 µM; in test [1] (mean pIC50, read-out: LRRK2 peptide substrate assay (pIC50) (converted)) it was 0.0794 µM; in test [2] (setting [4]) it was ≤ 20 µM; in test [2] (mean pIC50, GST-PS-Moesin (400-577) substrate, 2 mM ATP (excess of ATP present), read-out: LRRK2 alphascreen desensitised protein substrate assay (pIC50) (converted)) it was 7.94 µM.
Take `O=C(Nc1cccnc1)c1cc(OC[C@H]2CCCN2)ccc1OCc1ccccc1` [Example 44, 2-[(Phenylmethyl)oxy]-N-3-pyridinyl-5-{[(2R)-2-pyrrolidinylmethyl]oxy}benzamide]: the IC50 was ≤ 0.01 µM in test [1] (setting [3]) and ≤ 20 µM in test [2] (setting [4]).
For `CN1CCC[C@@H]1COc1ccc(OCc2ccccc2)c(C(=O)Nc2cccnc2)c1` [Example 45, 5-({[(2R)-1-Methyl-2-pyrrolidinyl]methyl}oxy)-2-[(phenylmethyl)oxy]-N-3-pyridinylbenzamide], in that order: ≤ 0.01 µM and ≤ 20 µM.
`O=C(Nc1cccnc1)c1cc(OC[C@@H]2CCCN2)ccc1OCc1ccccc1` [Example 46, 2-[(Phenylmethyl)oxy]-N-3-pyridinyl-5-{[(2S)-2-pyrrolidinylmethyl]oxy}benzamide]: the IC50 in test [1] (setting [3]) is ≤ 0.1 µM; in test [2] (setting [4]), ≤ 20 µM.
Take `CN1CCC[C@H]1COc1ccc(OCc2ccccc2)c(C(=O)Nc2cccnc2)c1` [Example 47, 5-({[(2S)-1-Methyl-2-pyrrolidinyl]methyl}oxy)-2-[(phenylmethyl)oxy]-N-3-pyridinylbenzamide]: the IC50 in test [1] (setting [3]) is ≤ 0.01 µM; in test [2] (setting [4]), ≤ 20 µM.
The like results for `CNCCOc1ccc(OCc2ccccc2)c(C(=O)Nc2cccnc2)c1` [Example 48, 5-{[2-(Methylamino)ethyl]oxy}-2-[(phenylmethyl)oxy]-N-3-pyridinylbenzamide] were, in that order, ≤ 0.1 µM and ≤ 20 µM.
The like results for `NCCOCCOc1ccc(OCc2ccccc2)c(C(=O)Nc2cccnc2)c1` [Example 49, 5-({2-[(2-Aminoethyl)oxy]ethyl}oxy)-2-[(phenylmethyl)oxy]-N-3-pyridinylbenzamide] were, in that order, ≤ 0.01 µM and ≤ 20 µM.
For `O=C(Nc1cn[nH]c1)c1cc(Br)ccc1OCc1ccccc1` [Example 51, 5-Bromo-2-[(phenylmethyl)oxy]-N-1H-pyrazol-4-ylbenzamide], in that order: ≤ 0.1 µM and ≤ 20 µM.
Consider `O=C(Nc1cccnc1)c1cc(Br)ccc1OCc1cccc(F)c1` [Example 57, 5-Bromo-2-{[(3-fluorophenyl)methyl]oxy}-N-3-pyridinyl benzamide], for which the IC50 in test [1] (setting [3]) is ≤ 0.1 µM; in test [2] (setting [4]) it was > 25.1 µM.
For `O=C(Nc1cccnc1)c1cc(Br)ccc1OCc1ccccc1F` [Example 58, 5-Bromo-2-{[(2-fluorophenyl)methyl]oxy}-N-3-pyridinylbenzamide], in that order: ≤ 0.01 µM and ≤ 20 µM.
Regarding `Cc1nocc1NC(=O)c1cc(-c2ccncc2)ccc1OCc1ccccc1` [Example 61, N-(3-Methyl-4-isoxazolyl)-2-[(phenylmethyl)oxy]-5-(4-pyridinyl)benzamide], the results for the IC50 in test [1] (setting [3]) and in test [2] (setting [4]) were ≤ 0.01 µM and ≤ 20 µM, respectively.
For `O=C(Nc1cnoc1)c1cc(-c2ccncc2)ccc1OCc1ccccc1` [Example 63, N-4-Isoxazolyl-2-[(phenylmethyl)oxy]-5-(4-pyridinyl)benzamide], in that order: ≤ 0.1 µM and ≤ 20 µM.
Consider `NCc1ccc(OCc2ccc(F)c(F)c2)c(C(=O)Nc2cccnc2)c1` [Example 120A, 5-(Aminomethyl)-2-{[(3,4-difluorophenyl)methyl]oxy}-N-3-pyridinylbenzamide], for which the IC50 in test [2] (setting [4]) is > 25.1 µM.
The same measure, in the same setting: then `COC(=O)NCc1ccc(OCc2ccc(F)c(F)c2)c(C(=O)Nc2cccnc2)c1` [Example 120B, Methyl ({4-{[(3,4-difluorophenyl)methyl]oxy}-3-[(3-pyridinylamino)carbonyl]phenyl}methyl)carbamate], with > 25.1 µM.
The same measure, in the same setting: to `Cc1nocc1NC(=O)c1cc(C(=O)N2CCOCC2)ccc1OCc1ccc(F)cc1` [Example 124, 2-{[(4-Fluorophenyl)methyl]oxy}-N-(3-methyl-4-isoxazolyl)-5-(4-morpholinylcarbonyl)benzamide] belongs > 25.1 µM; to `Cc1nocc1NC(=O)c1cc(C(=O)N2CCOCC2)ccc1OCc1ccc(F)cc1F` [Example 126, 2-{[(2,4-Difluorophenyl)methyl]oxy}-N-(3-methyl-4-isoxazolyl)-5-(4-morpholinylcarbonyl)benzamide], ≤ 20 µM.
For the molecule `O=C(Nc1ccnnc1)c1cc(C(F)(F)F)ccc1OCc1ccc(F)cc1` [Example 132, 2-{[(4-Fluorophenyl)methyl]oxy}-N-4-pyridazinyl-5-(trifluoromethyl)benzamide], the IC50 in test [2] (setting [4]) was ≤ 20 µM.
Still for that read-out and setting: then `Cc1nocc1NC(=O)c1cc(C(F)(F)F)ccc1OCc1ccc(F)cc1` [Example 133, 2-{[(4-fluorophenyl)methyl]oxy}-N-(3-methyl-4-isoxazolyl)-5-(trifluoromethyl)benzamide], with > 25.1 µM.
Turning to `Cc1oncc1NC(=O)c1cc(-c2cnn(C)c2)ccc1OCc1ccc(F)cc1` [Example 135, 2-{[(4-Fluorophenyl)methyl]oxy}-N-(5-methyl-4-isoxazolyl)-5-(1-methyl-1H-pyrazol-4-yl)benzamide], the IC50 in test [1] (setting [3]) is ≤ 0.1 µM.
